Read-outs that look alike come from different tables or passages of the source.
Legend:
[1] = test system: HCV replicon system (Huh-luc/neo-ET cell carrying I389luc-ubi-NS3-3'/ET); assay: Inhibition of the HCV replication by determining the firefly luciferase activity (HCV replicon system); assay type: cell-based, Hepatitis C virus; conditions: for EW (CC50/IC50): ratio of CC50/IC50
Text: HCV replicon system was used to test the effects of compounds on the treatment and prevention of hepatitis C. The HCV replicon system has been acknowledged as a screening tool for new drugs (Lohmann, V. et al., 1999, Replication of subgenomic hepatitis C virus RNAs in hepatoma cell line, Science. Vol. 285, 110-113; Bartenschlager, R. 2002, Hepatitis C virus replicons: potential role for drug development, Nature Reviews/Drug Discovery. Vol. 1, 911-916; Vorlijk, J. M. et al., 2003, A replicon-based bioassay for the measurement of interferons in patients with chronic hepatitis C, Journal of Virological Methods. 110:201-209). The HCV replicon system includes a Huh-luc/neo-ET cell carrying I389luc-ubi-NS3-3′/ET gene construct which monitors the replicative capability of the HCV. In the HCV replicon system, a firefly luciferase-ubiquitin-neomycin fusion protein is expressed by the translation of the internal ribosomal entry site (IRES) of the HCV, and the hepatitis C viral nonstructural proteins (NS3-5B), which includes protease, helicase and polymerase, are expressed by the translation of the IRES of the encephalomyocarditis virus (EMCV).
The IRES of the hepatitis C virus or the hepatitis C viral nonstructural proteins consist of a replication complex. When the replication complex is affected by the candidate compound, the activity of the HCV replicon system is inhibited and the activity of the luciferase is reduced. Accordingly, the inhibition of the HCV can be estimated by determining the activity of the intensity of the luciferase expressed by the Huh-luc/noe-ET cell.
Inhibition of the HCV Replication by Determining the Firefly Luciferase Activity
(§1) Huh-luc/neo-ET cells with a concentration of 2.5×10^4 cells/100 μl/well were seeded into a 96 well culture plate (Corning Incorporation COSTAR, 3599) and placed into a cell incubator for culturing.
The oleanolic acid derivatives as listed in Table 2 were co-cultured with Huh-luc/neo-ET cells for 2 days. The mediums were washed twice by 100 μl of 1×PBS (1 mM KH2PO4, 10 mM Na2HPO4, 137 mM NaCl, 2.7 mM KCl) and PBS was removed. 35 μl of 1× passive lysis buffer (Promega, E1941) was added to the cells and vortexed for 10 minutes to thoroughly lysis the cells.
30 μl/well of the cell suspension was then added to a 96 well white plate (NUNC, 236108) for the measurement of the luciferase activity. Subsequently, 40 μl/well of luminescence analysis buffer and 20 μl/well of luminescence substrate (1 mM D-Luciferin) were added into the 96 well white plates. The luciferase activity (Rlu/s) was measured by a microplate luminescence meter (Berthold, MPL4) immediately.
The luciferase activity of the control was set as a standard to calculate the inhibition rates (%) of HCV of the experiment groups. The inhibition rates was calculated by the following formula: […]
After the test compounds were serial diluted and the inhibition rates of the HCV replication were determined at different concentrations, the concentration at 50% inhibition of the HCV replication (IC50) was calculated by grafit5 software (Erithacus Software).
For each experiment, 0.5 ng/ml and 0.1 ng/ml of the PEG IFN alpha-2a were used as positive controls for the IC50 test. Meanwhile, 1 μg/ml of cyclosporine A (CsA) was also used as a positive control for the IC50 test.

Huh-luc/neo-ET cells = assay: Cell cytotoxic test (MTT) on Huh-luc/neo-ET cells; assay type: cell-based; conditions: concentration for 15% cell kill, two-day culture
Description: (§2) Cell Cytotoxic Test on Huh-luc/noe-ET Cells
as §1
(§3) The next day, the oleanolic acid derivatives as listed in the following Tables 1 and 2 were diluted with a DMEM culture medium to the concentrations of 28.73 μg/ml, 9.57 μg/ml, 3.19 μg/ml, 1.06 μg/ml, 0.35 μg/ml, 0.11 μg/ml, 0.039 μg/ml and 0.013 μg/ml, respectively, or diluted to the concentrations of 114.92 μg/ml, 38.33 μg/ml, 12.77 μg/ml, 4.25 μg/ml, 1.42 μg/ml, 0.46 μg/ml, 0.16 μg/ml and 0.057 μg/ml, respectively. The initial medium in the 96 well culture plate was sucked out by a vacuum pump (DOAT-704AA) without removing the cells. Then, the culture medium containing the oleanolic acid derivatives were added into the 96 well culture plate containing 100 μl/well of the cells as the experiment groups, while the untreated culture mediums were added to the cells as a control.
(§4) After a two-day culture, the medium was removed and each well containing cells was washed by 100 μl of 1×PBS (1 mM KH2PO4, 10 mM Na2HPO4, 137 mM NaCl, 2.7 mM KCl) twice. Precipitates were recorded and PBS was removed. 50 μl of the medium containing 0.5 mg/ml of MTT (Sigma, M2128) was added into each well of the 96 well culture plate. The 96 well culture plate was placed in a CO2 culture incubator for 1 hour. Subsequently, 150 μl of DMSO (Riedel-de Haül, 60153) was added to each well of the 96 well culture plate and vortexed (KS shaker Type 670) to thoroughly mix the resulting purple precipitates. The 96 well culture plate was then placed in a continuous wave length microwell plate analysis system (Molecular Devices, SPECTRAMAX 190) to measure the absorbance of cells at a wavelength of 560 nm.
(§5) The average absorbance of the control was set as 100% of the cell survival rates (%) to calculate the cell survival rates (%) of the experiment groups with different concentrations of the oleanolic acid derivatives.
(§6) The cell survival rate was calculated by the following formula: Absorbance of the experiment group/Absorbance of the control×100%
(§7) The data of the cell survival rates for all experiment groups were plotted on an x-y graph to see the distribution. A trend line was obtained. […]

[2] = Cell cytotoxic test (MTT) on Huh-luc/neo-ET cells; assay type: cell-based; conditions: human, concentration for 50% cell kill, two-day culture
Description: as §2, §1, §3, §4, §5, §6, §7

[3] = Hepatitis C virus, Huh-luc/neo-ET, 48 h, compound concentration 10 μM, 2 days co-culture, luciferase activity, read-out: Inhibition rate (%)
[4] = Hepatitis C virus, concentration for 50% inhibition of the HCV replication, Huh-luc/neo-ET replicon cells, read-out: IC50
[5] = Hepatitis C virus, Huh-luc/neo-ET
[6] = Hepatitis C virus, Huh-luc/neo-ET, 48 h, read-out: Inhibition rate (%)

## C/C=C(/C)C(=O)OC1C(O)C(C)(C)CC2C3=CCC4C5(C)CCC(OC6OC(C(=O)O)C(O)C(OC7OCC(O)C(O)C7O)C6OC6OC(CO)C(O)C(O)C6O)C(C)(C)C5CCC4(C)C3(C)C(OC(C)=O)C(O)C21CO (centres unmarked) [A11]
[1]; Hepatitis C virus, Huh-luc/neo-ET, 48 h, compound concentration 5 μM, 2 days co-culture, luciferase activity, read-out: Inhibition rate (%)
  inhibition at 5 µM: 28.3 ± 9.1%
Huh-luc/neo-ET cells
  CC15: 6.1 µM
[2]
  CC50 at 2 days: 29.8 µM

## C=CC(C)(O)CC/C=C(\C)C(=O)OC1C(O)C(CO)OC(OC(=O)C23CCC(C)(C)CC2C2=CCC4C5(C)CCC(OC6OC(COC7OCC(OC(C)=O)C(O)C7OC7OC(COC(C)=O)C(O)C(O)C7O)C(O)C(O)C6OC6OCC(O)C(O)C6O)C(C)(C)C5CCC4(C)C2(C)C(O)C3O)C1OC1OCC(OC2OCC(O)C(OC3OCC(O)C(O)C3O)C2O)C(O)C1O (centres unmarked) [A20]
[1]; [3]
  inhibition at 10 µM: 96 ± 1.5%
[1]; [4]
  IC50: 0.087 ± 0.01 µM
[1]
  EW (CC50/IC50): 576.67
Huh-luc/neo-ET cells
  CC15: 18.85 µM
[2]
  CC50 at 2 days: 50.2 µM

## C=CC(C)(CC/C=C(\CO)C(=O)OC1CC2(C(=O)OC3OCC(OC4CC(CO)C(O)C(OC5OC(CO)C(OC6OC(C)C(O)C(O)C6O)C(O)C5O)C4O)C(O)C3O)CCC3(C)C(=CCC4C5(C)CCC(OC6OC(CO)C(OC7OC(CO)C(O)C(OC8OCC(O)C(O)C8O)C7O)C(O)C6O)C(C)(C)C5CCC43C)C2CC1(C)C)OC1OC(C)C(O)C(O)C1O (centres unmarked) [A27]
[1]; [3]
  inhibition at 10 µM: 96.9 ± 0.6%
[1]; [4]
  IC50: 0.72 ± 0.07 µM
[1]
  EW (CC50/IC50): 106.56
Huh-luc/neo-ET cells
  CC15: 19.44 µM
[2]
  CC50 at 2 days: 76.7 µM

## C=CC(C)(O)CC/C=C(\C)C(=O)OCC1OC(OC(=O)C23CCC4(C)C(=CCC5C6(C)CCC(OC7OC(COC8OC(CO)C(O)C(O)C8O)C(OC8OCC(O)C(O)C8OC8OCC(O)C(O)C8O)C(O)C7NC(C)=O)C(C)(C)C6CCC54C)C2CC(C)(C)C(O)C3O)C(OC2OCC(OC3OCC(O)(CO)C3O)C(O)C2O)C(O)C1OC1OC(CO)C(O)C(O)C1O (centres unmarked) [A16]
[1]; [3]
  inhibition at 10 µM: 95.3 ± 0.3%
[1]; [4]
  IC50: 0.42 ± 0.21 µM
[1]
  EW (CC50/IC50): 107.9
Huh-luc/neo-ET cells
  CC15: 12.09 µM
[2]
  CC50 at 2 days: 45.3 µM

## C=CC(C)(O)CC/C=C(\C)C(=O)OCC1OC(OC(=O)C23CCC4(C)C(=CCC5C6(C)CCC(OC7OC(COC8OC(CO)C(O)C(O)C8O)C(OC8OCC(O)C(O)C8OC8OCC(O)C(O)C8O)C(O)C7NC(C)=O)C(C)(C)C6CCC54C)C2CC(C)(C)C(O)C3O)C(OC2OCC(OC3OCC(O)(CO)C3O)C(O)C2O)C(O)C1OC1OC(CO)C(OC(C)=O)C(O)C1O (centres unmarked) [A17]
[1]; Hepatitis C virus, Huh-luc/neo-ET, 48 h, compound concentration 1 μM, 2 days co-culture, luciferase activity, read-out: Inhibition rate (%)
  inhibition at 1 µM: 94.9 ± 1.2%
[1]; [4]
  IC50: 0.057 ± 0.003 µM
[1]
  EW (CC50/IC50): 317.89
Huh-luc/neo-ET cells
  CC15: 1.49 µM
[2]
  CC50 at 2 days: 18.1 µM

## CC1(C)CC2C3=CCC4[C@@]5(C)CC[C@H](OC6OCC(O)C(OC7OC(CO)C(O)C(O)C7O)C6O)C(C)(C)C5CC[C@@]4(C)[C@]3(C)C[C@H](O)[C@@]2(CO)[C@H](OC(=O)c2ccccc2)C1 (some centres unmarked) [A22]
[1]; [3]
  inhibition at 10 µM: -0.8 ± 5.7%
Huh-luc/neo-ET cells
  CC15: 8.62 µM
[2]
  CC50 at 2 days: 40 µM

## C/C=C(/C)C(=O)OC1CC(C)(C)CC2C3=CCC4C5(C)CCC(OC6OC(C)C(OC7OC(C(=O)O)C(O)C(OC8OC(CO)C(O)C(O)C8OC8OC(CO)C(O)C(O)C8O)C7O)C(O)C6O)C(C)(C)C5CCC4(C)C3(C)C(OC(=O)/C=C/C=C/C=C/CCC)C(OC(C)=O)C12CO (centres unmarked) [A15]
[1]; [5]
  IC50: 3.94 ± 0.13 µM
[1]; [6]
  inhibition at 10 µM: 92 ± 1.6%
[1]
  EW (CC50/IC50): 25.38
Huh-luc/neo-ET cells
  CC15: >100 µM
[2]
  CC50 at 2 days: > 100 µM

## CC(=O)OCC1OC(OC2COC(OC3COC(OC4C(OC5C(CO)OC(OC6CCC7(C)C(CCC8(C)C7CC=C7C9CC(C)(C)CCC9(C(=O)OC9OC(CO)C(O)C(O)C9OC9OCC(O)C(OC%10OCC(O)(CO)C%10O)C9O)C(O)CC78C)C6(C)C)C(O)C5O)OCC(O)C4O)C(O)C3O)C(O)C2O)C(OC(=O)/C=C/c2ccccc2)C(O)C1OC(C)=O (centres unmarked) [A06]
[1]; Hepatitis C virus, Huh-luc/neo-ET, 48 h, compound concentration 8 μM, 2 days co-culture, luciferase activity, read-out: Inhibition rate (%)
  inhibition at 8 µM: 94.7 ± 1.1%
[1]; [4]
  IC50: 0.01 ± 0.004 µM
[1]
  EW (CC50/IC50): 2520
Huh-luc/neo-ET cells
  CC15: 8.9 µM
[2]
  CC50 at 2 days: 25.2 µM

## C/C=C(/C)C(=O)OC1CC(C)(C)CC2C3=CCC4C5(C)CCC(OC6OC(C)C(OC7OC(C(=O)O)C(O)C(OC8OC(CO)C(O)C(O)C8OC8OC(CO)C(O)C(O)C8O)C7O)C(O)C6O)C(C)(C)C5CCC4(C)C3(C)C(OC(=O)/C=C/C=C/C=C/CCC)C(O)C12CO (centres unmarked) [A14]
[1]; [5]
  IC50: 1.95 ± 0.12 µM
[1]; [6]
  inhibition at 5 µM: 89.3 ± 0.8%
[1]
  EW (CC50/IC50): 51.28
Huh-luc/neo-ET cells
  CC15: 5.9 µM
[2]
  CC50 at 2 days: > 100 µM

## CC1(C)CC[C@]2(C(=O)O)CCC3=C([C@@H](CCl)C[C@@H]4[C@@]5(C)C[C@H](O)[C@H](O)[C@@](C)(C(=O)O)[C@@H]5CC[C@@]34C)[C@@H]2C1 [A01]
[1]; [3]
  inhibition at 10 µM: 41.5 ± 26.7%
Huh-luc/neo-ET cells
  CC15: >100 µM
[2]
  CC50 at 2 days: > 100 µM

## CC(=O)NC1C(O[C@H]2CC[C@@]3(C)C(CC[C@]4(C)C3CC=C3C5CC(C)(C)CC[C@]5(C(=O)OC5OC(COC(=O)/C=C/c6ccccc6)C(OC6OC(CO)C(O)C(O)C6OC(C)=O)C(O)C5OC5OCC(OC6OCC(O)(CO)C6O)C(O)C5O)CC[C@]34C)C2(C)C)OC(COC2OCC(O)C(O)C2OC2OCC(O)C(O)C2O)C(OC2OC(CO)C(O)C(O)C2O)C1O (some centres unmarked) [A24]
[1]; Hepatitis C virus, Huh-luc/neo-ET, 48 h, compound concentration 4 μM, 2 days co-culture, luciferase activity, read-out: Inhibition rate (%)
  inhibition at 4 µM: 54.8 ± 5.4%
Huh-luc/neo-ET cells
  CC15: 4.53 µM
[2]
  CC50 at 2 days: 14.1 µM

From US9289443B2, “Pharmaceutical composition and method for preventing or treating hepatitis C” (INDUSTRIAL TECHNOLOGY RESEARCH INSTITUTE, priority 2010, dated 2016)
